This note sets out measurements from patent US11434242B2, “Dopamine-b-hydroxylase inhibitors” (BIAL-PORTELA & Cª, S.A., priority 2017, dated 2022).

This assay concerns the target T1, Dopamine beta hydroxylase (Homo sapiens, UniProt P09172).
T1 construct: 125 μl of plasma; tissue Instituto Português do Sangue Transplantação; host or cells: human plasma from healthy donors
T1 sequence (P09172 40-617 limits assumed): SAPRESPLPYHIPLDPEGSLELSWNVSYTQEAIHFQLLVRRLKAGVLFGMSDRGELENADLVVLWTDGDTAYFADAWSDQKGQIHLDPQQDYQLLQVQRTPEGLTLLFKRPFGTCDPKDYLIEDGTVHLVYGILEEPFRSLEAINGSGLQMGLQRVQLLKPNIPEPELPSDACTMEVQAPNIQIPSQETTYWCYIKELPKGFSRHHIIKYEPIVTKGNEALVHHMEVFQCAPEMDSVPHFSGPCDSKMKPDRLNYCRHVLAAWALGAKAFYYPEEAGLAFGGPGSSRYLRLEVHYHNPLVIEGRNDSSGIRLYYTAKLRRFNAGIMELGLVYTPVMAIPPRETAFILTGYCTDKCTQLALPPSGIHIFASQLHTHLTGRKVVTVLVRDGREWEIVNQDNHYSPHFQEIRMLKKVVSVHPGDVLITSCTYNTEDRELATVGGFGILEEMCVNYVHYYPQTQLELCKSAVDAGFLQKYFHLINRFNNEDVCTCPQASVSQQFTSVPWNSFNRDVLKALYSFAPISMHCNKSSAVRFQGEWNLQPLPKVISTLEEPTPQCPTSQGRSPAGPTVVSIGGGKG
Briefly: Dopamine beta hydroxylase activity in human plasma. The following applies: for Plasma (0.01 μM), activity in % of control: inhibitor 0.01 μM; for Plasma (0.1 μM), activity in % of control: inhibitor 0.1 μM. It counts as biochemical. An outline of the steps: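 Octopamine production from tyramine over 45 min at 37° C, measured photometrically at 330 nm after SCX extraction and periodate oxidation against an octopamine standard curve, indicates plasma DβH activity. Compounds tested at final 10, 100 and 1000 nM in human plasma, pH 5.0 cofactor buffer, 10 min preincubation; results as % of control.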

Regarding `CN(C(=O)Cc1c2n(c(=S)n1C)C[C@@]1(c3c(F)ccc(Cl)c3F)C[C@@H]21)C1CCOCC1` [Example 443, 2-((5aS,6aR)-5a-(3-chloro-2,6-difluorophenyl)-2-methyl-3-thioxo-2,3,5,5a,6,6a-hexahydrocyclopropa[3,4]pyrrolo[1,2-c]imidazol-1-yl)-N-methyl-N-(tetrahydro-2H-pyran-4-yl)acetamide], the “Plasma (0.01 μM), activity in % of control” value was 59.2 % of control and the “Plasma (0.1 μM), activity in % of control” value is listed as 11.5 % of control.
As to `CN(C(=O)Cc1c2n(c(=S)n1C)C[C@@]1(c3cc(Br)ccc3F)C[C@@H]21)C1COC1` [Example 438, 2-((5aS,6aR)-5a-(5-bromo-2-fluorophenyl)-2-methyl-3-thioxo-2,3,5,5a,6,6a-hexahydrocyclopropa[3,4]pyrrolo[1,2-c]imidazol-1-yl)-N-methyl-N-(oxetan-3-yl)acetamide], the “Plasma (0.01 μM), activity in % of control” value is reported as 64.0 % of control and the “Plasma (0.1 μM), activity in % of control” value is recorded as 7.5 % of control.
With `Cn1c(CC(=O)NCC2CCOCC2)c2n(c1=S)C[C@H](c1c(F)ccc(F)c1F)C2` [Example 427, (S)-2-(2-methyl-3-thioxo-6-(2,3,6-trifluorophenyl)-2,5,6,7-tetrahydro-3H-pyrrolo[1,2-c]imidazol-1-yl)-N-((tetrahydro-2H-pyran-4-yl)methyl)acetamide], the “Plasma (0.01 μM), activity in % of control” value is 78.1 % of control and the “Plasma (0.1 μM), activity in % of control” value is given as 34.2 % of control.
The corresponding values for `Cn1c(CC(=O)NC2CCCC2)c2n(c1=S)C[C@@]1(c3c(F)ccc(Cl)c3F)C[C@@H]21` [Example 271, 2-((5aS,6aR)-5a-(3-chloro-2,6-difluorophenyl)-2-methyl-3-thioxo-2,3,5,5a,6,6a-hexahydrocyclopropa[3,4]pyrrolo[1,2-c]imidazol-1-yl)-N-cyclopentylacetamide] are 62.1 % of control and 13.2 % of control.
For `Cl.Fc1ccc(Cl)c(F)c1[C@@H]1Cc2c(CCN3CCOCC3)[nH]c(=S)n2C1` [Example 196, (S)-6-(3-chloro-2,6-difluorophenyl)-1-(2-morpholinoethyl)-2,5,6,7-tetrahydro-3H-pyrrolo[1,2-c]imidazole-3-thione Hydrochloride], in that order: 102.2 % of control and 68.6 % of control.
The corresponding values for `O=C(NCc1[nH]c(=S)n2c1C[C@@H](c1c(F)ccc(Cl)c1F)C2)c1cccnc1` [Example 223, (S)—N-((6-(3-chloro-2,6-difluorophenyl)-3-thioxo-2,5,6,7-tetrahydro-3H-pyrrolo[1,2-c]imidazol-1-yl)methyl)nicotinamide] are 42.7 % of control and 7.2 % of control.
On to `CN(CCO)C(=O)Cc1[nH]c(=S)n2c1C[C@H](c1c(F)ccc(Br)c1F)C2` [Example 131, (R)-2-(6-(3-bromo-2,6-difluorophenyl)-3-thioxo-2,5,6,7-tetrahydro-3H-pyrrolo[1,2-c]imidazol-1-yl)-N-(2-hydroxyethyl)-N-methylacetamide], for which the “Plasma (0.01 μM), activity in % of control” value is 89.8 % of control and the “Plasma (0.1 μM), activity in % of control” value is on record as 50.5 % of control.
For `Cn1c(CC(=O)N2CCC[C@H]2CF)c2n(c1=S)C[C@@H](c1c(F)ccc(F)c1F)C2` [Example 296, 1-((S)-2-(fluoromethyl)pyrrolidin-1-yl)-2-((R)-2-methyl-3-thioxo-6-(2,3,6-trifluorophenyl)-2,5,6,7-tetrahydro-3H-pyrrolo[1,2-c]imidazol-1-yl)ethan-1-one], in that order: 89.2 % of control and 74.5 % of control.
The corresponding values for `Cn1c(C2(C(=O)N[C@@H]3CCOC3)CC2)c2n(c1=S)C[C@H](c1c(F)ccc(Br)c1F)C2` [Example 234, 1-((S)-6-(3-bromo-2,6-difluorophenyl)-2-methyl-3-thioxo-2,5,6,7-tetrahydro-3H-pyrrolo[1,2-c]imidazol-1-yl)-N—((R)-tetrahydrofuran-3-yl)cyclopropane-1-carboxamide] are 43.4 % of control and 12.2 % of control.
As for `Cl.O=C(Cc1[nH]c(=S)n2c1C[C@@H](c1c(F)ccc(Cl)c1F)C2)NCc1cccnc1` [Example 109, (S)-2-(6-(3-chloro-2,6-difluorophenyl)-3-thioxo-2,5,6,7-tetrahydro-3H-pyrrolo[1,2-c]imidazol-1-yl)-N-(pyridin-3-ylmethyl)acetamide Hydrochloride], the “Plasma (0.1 μM), activity in % of control” value was 5.4 % of control. Moreover, the “Plasma (1 μM), activity in % of control” value (inhibitor 1 μM) was 1.5 % of control.
With `O=C(Cc1[nH]c(=S)n2c1C[C@H](c1c(F)c(F)cc(F)c1F)C2)N[C@@H]1CCCOC1` [Example 386, N—((R)-tetrahydro-2H-pyran-3-yl)-2-((R)-3-thioxo-6-(2,3,5,6-tetrafluorophenyl)-2,5,6,7-tetrahydro-3H-pyrrolo[1,2-c]imidazol-1-yl)acetamide], the “Plasma (0.01 μM), activity in % of control” value is 101.8 % of control and the “Plasma (0.1 μM), activity in % of control” value is recorded as 79.4 % of control.
For `CN(C(=O)Cc1c2n(c(=S)n1C)C[C@@H](c1c(F)ccc(F)c1F)C2)C1CCOCC1` [Example 372, (R)—N-methyl-2-(2-methyl-3-thioxo-6-(2,3,6-trifluorophenyl)-2,5,6,7-tetrahydro-3H-pyrrolo[1,2-c]imidazol-1-yl)-N-(tetrahydro-2H-pyran-4-yl)acetamide], in that order: 93.4 % of control and 32.0 % of control.
For `Cn1c(CC(=O)N[C@@H]2CCOC2)c2n(c1=S)C[C@H](c1c(F)ccc(Cl)c1F)C2` [Example 250, 2-((S)-6-(3-chloro-2,6-difluorophenyl)-2-methyl-3-thioxo-2,5,6,7-tetrahydro-3H-pyrrolo[1,2-c]imidazol-1-yl)-N—((R)-tetrahydrofuran-3-yl)acetamide], in that order: 46.1 % of control and 7.3 % of control.
For `Cn1c(CC(=O)N[C@@H]2CCOC2)c2n(c1=S)C[C@@H](c1c(F)cccc1F)C2` [Example 446, 2-((R)-6-(2,6-difluorophenyl)-2-methyl-3-thioxo-2,5,6,7-tetrahydro-3H-pyrrolo[1,2-c]imidazol-1-yl)-N—((R)-tetrahydrofuran-3-yl)acetamide], in that order: 83.0 % of control and 62.9 % of control.
As to `O=C(Cc1[nH]c(=S)n2c1C[C@@H](c1c(F)ccc(Br)c1F)C2)N1CCSCC1` [Example 137, (S)-2-(6-(3-bromo-2,6-difluorophenyl)-3-thioxo-2,5,6,7-tetrahydro-3H-pyrrolo[1,2-c]imidazol-1-yl)-1-thiomorpholinoethan-1-one], the “Plasma (0.01 μM), activity in % of control” value is given as 72.9 % of control and the “Plasma (0.1 μM), activity in % of control” value is 21.5 % of control.
For `O=C(O)Cc1[nH]c(=S)n2c1[C@@H]1C[C@]1(c1cc(Br)ccc1F)C2` [Example 361, 2-((5aS,6aR)-5a-(5-bromo-2-fluorophenyl)-3-thioxo-2,3,5,5a,6,6a-hexahydrocyclopropa[3,4]pyrrolo[1,2-c]imidazol-1-yl)acetic Acid], in that order: 60.0 % of control and 10.4 % of control.
